Results taken from patent US6156700A, “3-(1,2-Benzisothiazol- and isoxazol-5-yl)-2,4(1H,3H)-pyrimidinedione or thione and 3-(1,2-benzisothiazol- and isoxazol-5-yl)-4(3H)-pyrimidinone or thione herbicidal agents” (American Cyanmid Company, priority 1998, dated 2000).

Legend:
[1] = tested on: Soybean, Williams, Glycine max; assay: Postemergence herbicidal evaluation, GLXMAW; assay type: in vivo, (L.) Merr. cv Williams
Summary of the method: (§1)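 Each compound, dispersed in a 1:1 acetone–water mixture bearing 0.5% TWEEN 20, was sprayed onto roughly two-week-old seedlings at about 0.0157–0.500 kg/ha. Visual 0–9 ratings against control were made 4–5 weeks post-treatment and averaged over repeat tests.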

[2] = tested on: Galium, Galium aparine; assay: Preemergence herbicidal evaluation, GALAP; assay type: in vivo; conditions: 0.2500 kg/ha
Summary of the method: (§2)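 Sow seeds in soil-filled cups; spray aqueous acetone compound solution at about 0.0156–0.500 kg/ha; keep on greenhouse benches with routine watering; after four to five weeks, rate visual injury 0–9 compared with control plants.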

[3] = tested on: Foxtail, Green, Setaria viridis; assay: Preemergence herbicidal evaluation, SETVI; assay type: in vivo, (L.) Beau; conditions: 0.2500 kg/ha
Summary of the method: as §2

[4] = tested on: Rice, Tebonnet, Oryza sativa; assay: Preemergence herbicidal evaluation, ORYSAT; assay type: in vivo, (L.) Tebonnet; conditions: 0.2500 kg/ha
Summary of the method: as §2

[5] = tested on: Lambsquarters, Common, Chenopodium album; assay: Postemergence herbicidal evaluation, CHEAL; assay type: in vivo, L.
Summary of the method: as §1

[6] = tested on: Soybean, Glycine max; assay: Postemergence herbicidal evaluation, GLXMA; assay type: in vivo, (L.) Merr.; conditions: 0.2500 kg/ha
Experimental: (§3) In the tests, seedling plants are grown in jiffy flats for about two weeks. The test compounds are dispersed in 50/50 acetone/water mixtures containing 0.5% TWEEN®20, a polyoxyethylene sorbitan monolaurate surfactant of Atlas Chemical Industries, in sufficient quantities to provide the equivalent of about 0.0157 kg to 0.500 kg per hectare of active compound when applied to the plants through a spray nozzle operating at 40 psi for a predetermined time. After spraying, the plants are placed on greenhouse benches and are cared for in accordance with conventional greenhouse procedures. From four to five weeks after treatment, the seedling plants are examined and rated according to the rating system set forth below. Where more than one test is involved for a given compound, the data are averaged.
(§4) Results of herbicide evaluation are expressed on a rating scale (0-9). The scale is based upon a visual observation of plant stand, vigor, malformation, size, chlorosis and overall plant appearance as compared with a control.

[7] = tested on: Lambsquarters, Common, Chenopodium album; assay: Preemergence herbicidal evaluation, CHEAL; assay type: in vivo, L.; conditions: 0.2500 kg/ha
Summary of the method: as §2

[8] = tested on: Morningglory, Ivyleaf, Ipomoea hederacea; assay: Postemergence herbicidal evaluation, IPOHE; assay type: in vivo, (L.) Jacq.; conditions: 0.0630 kg/ha
Summary of the method: as §1

[9] = tested on: SAGPY Arrowhead (Pygmaea); assay: Preemergence weed control, flooded paddy (Table III); assay type: in vivo, Sagittaria pygmaea; parameters: scale not given here
Experimental: (§5) Preemergence herbicidal activity under flooded paddy conditions is determined as follows: plant seeds or propagating organs are planted in the top 0.5 cm of silt loam soil in 32 oz. plastic containers with a diameter of 10.5 cm and no drainage holes. Water is added to these containers and maintained at 1.5 to 3 cm above the soil surface for the duration of the experiment. The test compounds are applied as aqueous/acetone mixtures 50/50 v/v pipetted directly into the flood water to give the equivalent of about 0.0313 to 0.500 kg/ha of active ingredient. The treated containers are placed on greenhouse benches and cared for in accordance with conventional greenhouse procedures. Three to four weeks after treatment, the test is terminated and each container is examined and herbicidal effect rated according to the rating system provided in Example 185. The compounds evaluated are reported by compound number given in Example 185.

[10] = tested on: Velvetleaf, Abutilon theophrasti; assay: Postemergence herbicidal evaluation, ABUTH; assay type: in vivo, Medic.
Summary of the method: as §1

[11] = tested on: Foxtail, Green, Setaria viridis; assay: Postemergence herbicidal evaluation, SETVI; assay type: in vivo, (L.) Beau
Summary of the method: as §1

[12] = tested on: MOOVA Monochoria; assay: Preemergence weed control, flooded paddy (Table III); assay type: in vivo, Monochoria vaginalis; parameters: scale not given here
Experimental: as §5

[13] = tested on: Ragweed, Common, Ambrosia artemisifolia; assay: Postemergence herbicidal evaluation, AMBEL; assay type: in vivo, L.
Summary of the method: as §1

[14] = tested on: Morningglory Spp., Ipomoea Spp.; assay: Postemergence herbicidal evaluation, IPOSS; assay type: in vivo; conditions: 0.2500 kg/ha
Experimental: as §3, §4

[15] = tested on: Sicklepod, Cassia obtusifolia; assay: Preemergence herbicidal evaluation, CASOB; assay type: in vivo, L.; conditions: 0.2500 kg/ha
Summary of the method: as §2

[16] = tested on: ECHORC Watergrass (Calif.); assay: Preemergence weed control, flooded paddy (Table III); assay type: in vivo, Echinochloa oryzoides; parameters: scale not given here
Experimental: as §5

[17] = tested on: Barnyardgrass, Echinochloa crus-galli; assay: Preemergence herbicidal evaluation, ECHCG; assay type: in vivo, (L.) Beau; conditions: 0.2500 kg/ha
Summary of the method: as §2

[18] = tested on: Corn, Field, Zea mays; assay: Postemergence herbicidal evaluation, ZEAMX; assay type: in vivo, L.
Summary of the method: as §1

[19] = tested on: Sicklepod, Cassia obtusifolia; assay: Postemergence herbicidal evaluation, CASOB; assay type: in vivo, L.
Summary of the method: as §1

[20] = tested on: Velvetleaf, Abutilon theophrasti; assay: Preemergence herbicidal evaluation, ABUTH; assay type: in vivo, Medic.; conditions: 0.2500 kg/ha
Summary of the method: as §2

[21] = tested on: Morningglory Spp., Ipomoea Spp.; assay: Preemergence herbicidal evaluation, IPOSS; assay type: in vivo; conditions: 0.2500 kg/ha
Source text: as §4
(§6) The preemergence herbicidal activity of the test compounds of the present invention is exemplified by the following tests in which the seeds of a variety of monocotyledonous and dicotyledonous plants are separately mixed with potting soil and planted on top of approximately one inch of soil in separate pint cups. After planting, the cups are sprayed with the selected aqueous acetone solution containing test compound in sufficient quantity to provide the equivalent of about 0.0156 to 0.500 kg per hectare of test compound per cup. The treated cups are then placed on greenhouse benches, watered and cared for in accordance with conventional greenhouse procedures. From four to five weeks after treatment, the tests are terminated and each cup is examined and rated according to the rating system provided in Example 185.
(§7) The compounds evaluated are reported by compound number given in Example 185.

[22] = tested on: Corn, Field, Zea mays; assay: Preemergence herbicidal evaluation, ZEAMX; assay type: in vivo, L.; conditions: 0.2500 kg/ha
Summary of the method: as §2

[23] = tested on: Soybean, Glycine max; assay: Preemergence herbicidal evaluation, GLXMA; assay type: in vivo, (L.) Merr.; conditions: 0.2500 kg/ha
Source text: as §4, §6, §7

Cc1nsc2ccc(-n3c(=O)cc(C(F)(F)F)n(C)c3=O)cc12 [Compound 6, 1-Methyl-3-(3-methyl-1,2-benzisothiazol-5-yl)-6-(trifluoromethyl)-2,4(1H,3H)-pyrimidinedione]
herbicide rating (0-9) ([1]; 0.0630 kg/ha): 4.8
herbicide rating (0-9) ([1]; 0.2500 kg/ha): 7.0
herbicide rating (0-9) [2]: 9.0
herbicide rating (0-9) [3]: 9.0
herbicide rating (0-9) [4]: 8.0
herbicide rating (0-9) ([5]; 0.0630 kg/ha): 7.0
herbicide rating (0-9) ([5]; 0.2500 kg/ha): 9.0
herbicide rating (0-9) [6]: 6.0
herbicide rating (0-9) [7]: 9.0
herbicide rating (0-9) [8]: 5.0
herbicidal effect rating ([9]; 0.0625 kg/ha): 4.0
herbicidal effect rating ([9]; 0.1250 kg/ha): 7.0
herbicidal effect rating ([9]; 0.2500 kg/ha): 7.0
herbicidal effect rating ([9]; 0.5000 kg/ha): 9.0
herbicide rating (0-9) ([10]; 0.0630 kg/ha): 9.0
herbicide rating (0-9) ([10]; 0.2500 kg/ha): 9.0
herbicide rating (0-9) ([11]; 0.0630 kg/ha): 2.0
herbicide rating (0-9) ([11]; 0.2500 kg/ha): 9.0
herbicidal effect rating ([12]; 0.0625 kg/ha): 9.0
herbicidal effect rating ([12]; 0.1250 kg/ha): 9.0
herbicidal effect rating ([12]; 0.2500 kg/ha): 9.0
herbicidal effect rating ([12]; 0.5000 kg/ha): 9.0
herbicide rating (0-9) ([13]; 0.0630 kg/ha): 6.5
herbicide rating (0-9) ([13]; 0.2500 kg/ha): 9.0
herbicide rating (0-9) [14]: 9.0
herbicide rating (0-9) [15]: 9.0
herbicidal effect rating ([16]; 0.0625 kg/ha): 6.0
herbicidal effect rating ([16]; 0.1250 kg/ha): 8.0
herbicidal effect rating ([16]; 0.2500 kg/ha): 9.0
herbicidal effect rating ([16]; 0.5000 kg/ha): 9.0
herbicide rating (0-9) [17]: 9.0
herbicide rating (0-9) ([18]; 0.0630 kg/ha): 4.5
herbicide rating (0-9) ([18]; 0.2500 kg/ha): 3.5
herbicide rating (0-9) ([19]; 0.0630 kg/ha): 2.5
herbicide rating (0-9) ([19]; 0.2500 kg/ha): 8.0
herbicide rating (0-9) [20]: 9.0
herbicide rating (0-9) [21]: 9.0
herbicide rating (0-9) [22]: 9.0
herbicide rating (0-9) [23]: 9.0
